Test results as given in patent US20220354811A1, “METHODS AND COMPOSITIONS FOR MODULATING MACROPHAGES POLARIZATION” (INSERM (INSTITUT NATIONAL DE LA SANTÉ ET DE LA RECHERCHE …, priority 2019, published 2022).

What was measured:
human primary monocytes = experiment: CSF-1-induced monocyte differentiation into macrophages (flow cytometry, CD71/CD163 and CD16/CD163 double positive cells); type: cell-based
Text: FIG. 1. […] (A) Macrophagic differentiation of monocytes from 3 different healthy donors was examined by 3-color flow cytometric analysis. The results are expressed as percentage of CD71/CD163 or CD16/CD163 double positive cells and represent the mean±SD of 3 independent experiments performed in duplicate. (B) Cell death from 3 different healthy donors was examined by flow cytometry analysis. The results are expressed as percentage of AnnexinV/DAPI double positive cells and represent the mean±SD of 3 independent experiments performed in duplicate. n.s. denotes not statistically significant according to a paired student t test. *P<0.05, **P<0.01, ***P<0.001 according to a paired student t test (versus d2).
FIG. 2. […] Macrophagic differentiation of monocytes from 3 different healthy donors was examined by 3-color flow cytometric analysis. The results are expressed as percentage of CD71/CD163 or CD16/CD163 double positive cells and represent the mean±SD of 3 independent experiments performed in duplicate. n.s. denotes not statistically significant according to a paired student t test. *P<0.05, **P<0.01, ***P<0.001 according to a paired student t test (versus d2).
Human peripheral […] were obtained from healthy donors with informed consent following the Declaration of Helsinki according to recommendations of an independent scientific review board. The project has been validated by The Etablissement Francais du Sang, the French national agency for blood collection (protocol N°ALM/PLER/FO/001). Blood samples were collected using ethylene diamine tetraacetic acid-containing tubes. Mononucleated cells were first isolated using Ficoll Hypaque (Eurobio, CMSMSL0101). Then, we used the autoMACS® Pro Separator (Miltenyi, France) to perform cell enrichment. An initial positive selection, which included antibody targeting CD14, was used for monocyte enrichment (Miltenyi, 130-050-201). Purified monocytes from human were grown in RPMI 1640 medium with glutamax-I (Life Technologies, 61870044) supplemented with 10% (vol/vol) foetal bovine serum (Life Technologies). Macrophage differentiation was induced by adding into the culture medium 100 ng/mL CSF-1 and was visualized using standard optics (20x/0.35 Ph1) equipped with an AxioCam ERc camera (Zeiss, France). Phase images of the cultures were recorded with the Zen 2 software (Zeiss).
To analyze the macrophagic differentiation of monocytes, the cells were washed with ice-cold phosphate buffered saline (PBS, Life Technologies, 14190169), incubated at 4° C. for 10 min in PBS/bovine serum albumin (BSA 0.5%, Dutscher, 871002) with anti-CD16, anti-CD71 and anti-CD163 or isotype controls (Miltenyi and BD Biosciences, catalog numbers were 130-113-396, 130-097-628 and 551374). Finally, the cells were washed and fixed in 2% paraformaldehyde (EMS, 15710). To perform macrophage polarization, purified monocytes were plated at 0.3×10^6 per mL in RPMI 1640 medium with glutamax-I supplemented with 10% (vol/vol) fetal bovine serum plus CSF-1 for 5+2 days to differentiate into M0 macrophages. 20 ng/mL IL-4 (Miltenyi, 130-094-117) was added after 5 days of differentiation for two days to polarize into M2-macrophages. […] Fluorescence was measured with a MACSQuant® Analyzer (Miltenyi, Paris, France). […] Fluorescence was measured with a MACSQuant® Analyzer (Miltenyi, Paris, France). […]

caspase 3 = molecular target: T1, caspase 3 (Homo sapiens, UniProt P42574); experiment: Recombinant caspase-3 activity in vitro (Ac-DEVD-AMC substrate); type: biochemical; set-up: using active recombinant proteins of caspase-8 and caspase-3; purchased Enzo life sciences ALX-201-059; conditions: recombinant caspase-3, Ac-DEVD-AMC
T1 sequence (P42574 29-175 limits assumed): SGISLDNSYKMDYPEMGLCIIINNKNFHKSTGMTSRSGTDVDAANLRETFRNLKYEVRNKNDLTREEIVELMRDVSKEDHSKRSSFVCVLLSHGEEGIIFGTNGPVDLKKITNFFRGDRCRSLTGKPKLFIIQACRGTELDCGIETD
T1 sequence (P42574 176-277 limits assumed): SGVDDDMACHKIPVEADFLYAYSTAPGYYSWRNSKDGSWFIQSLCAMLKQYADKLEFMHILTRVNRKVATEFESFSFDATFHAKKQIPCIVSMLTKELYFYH
Text: FIG. 4. […] (A) Measures of caspase-8 activity (IETD-AMC). IETD-CHO treatment is used as positive control in the in vitro assay. The results are expressed as A.U./min and represent the mean of 3 independent experiments realized in duplicate (B) Measures of caspase-3 activity (DEVD-AMC). DEVD-CHO is used as positive control in the in vitro assay. The results are expressed as A.U./min and represent the mean of 3 independent experiments realized in duplicate. Human CSF-1 was purchased from Miltenyi (130-096-493). […] Mouse caspase-8 was from R&D Systems (AF705). HRP-conjugated rabbit anti-goat was purchased from Dako ([…]) and HRP-conjugated goat anti-rabbit was from Cell Signaling (5127). Active recombinant caspase-8 (ALX-201-062) and -3 (ALX-201-059) were from Enzo life sciences. […] Each assay (in triplicate) was performed with 10 μg of protein prepared from control or stimulated cells. […] Enzyme activities were expressed in arbitrary units (A.U.) per min and per mg of proteins. The same protocol was used with 0.25 units of active recombinant caspase-8 (Enzo, ALX-201-062) or -3 (Enzo, ALX-201-059) in each triplicate.

| SMILES | concentrations with strong inhibitory effect on macrophagic differentiation (human primary monocytes; CSF-1 2 days, Emricasan added at day 0, three different donors) [µM] | concentration range that efficiently inhibited monocyte differentiation (human primary monocytes; same-experiment comparison, added only one time, CSF-1 2 days) [µM] | IC50 (caspase 3) [nM] | concentration of maximal inhibition of caspase-3 (caspase 3) [µM] | concentration range of dose-dependent inhibition of macrophagic differentiation (human primary monocytes; added at day 0 only, inhibition weak compared to Emricasan) [µM] | concentrations with significant inhibitory effect on monocyte differentiation (human primary monocytes; only when added twice (day 0 and day 1), several donors) [µM] | concentration necessary to achieve inhibition identical to Emricasan (human primary monocytes; same-experiment comparison, 2 successive treatments (days 0 and 1)) [µM] |
| --- | --- | --- | --- | --- | --- | --- | --- |
| C[C@H](NC(=O)C(=O)Nc1ccccc1C(C)(C)C)C(=O)N[C@@H](CC(=O)O)C(=O)COc1c(F)c(F)cc(F)c1F [Emricasan, (S)-3-((S)-2-(2-((2-(tert-Butyl)phenyl)amino)-2-oxoacetamido)propanamido)-4-oxo-5-(2,3,5,6-tetrafluorophenoxy)pentanoic acid] | 1 to 2 | 1.5 to 2.5 | ~500 | 10 | – | – | – |
| CC(C)[C@H](NC(=O)c1ccc2ccccc2n1)C(=O)N[C@@H](CC(=O)O)C(=O)COc1c(F)cccc1F [Q-VD-OPh] | – | – | ~500 | 10 | 75 to 125 | 100 to 125 | 100 |
